Test results taken from paper PMC5068747, “Using C. elegans Forward and Reverse Genetics to Identify New Compounds with Anthelmintic Activity” (PLoS Neglected Tropical Diseases, 2016).

Experiments:
Format in all cases: in vivo, Caenorhabditis elegans
[1] = tested on: C. elegans DA1316 (avr-14(ad1302); avr-15(vu227); glc-1(pk54), ivermectin resistant); assay: IC50 on ivermectin resistant C. elegans strain; settings: Caenorhabditis elegans, 120 h; 5 days exposure, 2 L4 per well, three biological replicates
[2] = tested on: C. elegans CB193 (unc-29(e193), levamisole resistant); assay: IC50 on levamisole resistant C. elegans strain; settings: Caenorhabditis elegans, 120 h; 5 days exposure, 2 L4 per well, three biological replicates
[3] = tested on: C. elegans mitochondrial complex II (mev-1, sdha-1, sdhb-1, sdhd-1) mutant strains; assay: Resistance of mitochondrial complex II mutant MMP strains to CID 2747322
Source text: CID 2747322 shares some structural similarity to the WACT-11 compound identified by. […] This led us to examine MMP strains with mutations in the other three mitochondrial complex II subunits; sdha-1, sdhb-1 and sdhd-1, to see if any of these strains are also resistant to CID 2747322. For thirteen strains with sdha-1 missense mutations, three are resistant. For eight strains with sdhb-1 missense mutations, two are resistant. For sdhd-1, one of five MMP strains is resistant (Table 5). To better understand how these different alleles might alter drug effectiveness, we mapped all of these mutations plus gk3613 onto an X-ray resolved protein crystal structure of the mitochondrial complex II of Ascaris suum (PDB: 3VRB) (Fig 3a).

[4] = tested on: C. elegans VC2010; assay: Manual inspection of growth, brood size, developmental stage and recovery of C. elegans in drug
Procedure: WormScan is a powerful tool to identify compounds with potential effects on the nematode, but it is still necessary to do manual inspection of wells with few animals to determine details of growth, behavior and fecundity. Wild-type worms grown in 90 μM CID 2747322 have brood sizes reduced by 97%. […] All current classes of anthelmintic have greater specificity towards certain life-stages. It is interesting that when removed from the drug L1s will recover and develop, and generally become fertile adults (See S3 Fig).
Supplementary file pntd.0005058.s002.tiff: S2 Fig Developmental stage of inhibition in C. elegans after CID 2747322 exposure. Ten VC2010 L1 stage C. elegans were sorted into a DMSO control well or 90 μM of CID 2747322. Nematodes were removed from the DMSO control or CID 2747322 after 24/48/72 hours and allowed to recover for 30 minutes on standard agar plates. (TIFF) Click here for additional data file.
Supplementary file pntd.0005058.s003.tiff: S3 Fig Development of C. elegans after removel from CID 2747322. Greater than 50 VC2010 L1 stage C. elegans were sorted into a DMSO control well or 90 μM of CID 2747322. Nematodes were removed from DMSO control or CID 2747322 after 2 days of exposure and left to recovery for 24/48/72 hours. (TIFF) Click here for additional data file.

COc1ccc(OCCNC(=O)c2ccccc2C(F)(F)F)cc1 [CID 2747322, N-[2-(4-methoxyphenoxy)ethyl]-2-(trifluoromethyl)benzamide]
IC50 [1]: 16 µM
IC50 [2]: 14 µM
Resistance ([3]; strain VC20295, sdhd-1 A30V): none
Resistance ([3]; strain VC20401, sdhb-1 S209L): resistant
Resistance ([3]; strain VC20417, sdha-1 E305K): none
Resistance ([3]; strain VC20501, mev-1 S178N): none
Resistance ([3]; strain VC20587, sdhb-1 E294K): none
Resistance ([3]; strain VC20602, mev-1 G77S): resistant
Resistance ([3]; strain VC30090, sdha-1 G363E): sensitive
Resistance ([3]; strain VC30107, sdha-1 S292T): sensitive
Resistance ([3]; strain VC30120, sdhd-1 L59F): none
Resistance ([3]; strain VC40073, sdha-1 S142F): sensitive
Resistance ([3]; strain VC40186, sdhb-1 D192E): none
Resistance ([3]; strain VC40193, sdhb-1 T285I): resistant
Resistance ([3]; strain VC40304, sdha-1 P385S): none
Resistance ([3]; strain VC40350, sdha-1 V131I): none
Resistance ([3]; strain VC40364, sdhb-1 N118I): sensitive
Resistance ([3]; strain VC40386, sdhd-1 A97V): resistant
Resistance ([3]; strain VC40391, sdha-1 G335E): resistant
Resistance ([3]; strain VC40423, sdhb-1 I280S): sensitive
Resistance ([3]; strain VC40533, sdha-1 R482C): resistant
Resistance ([3]; strain VC40570, sdhd-1 L120F): none
Resistance ([3]; strain VC40576, sdha-1 D317N): sensitive
Resistance ([3]; strain VC40631, sdha-1 H504Y): none
Resistance ([3]; strain VC40752, sdhb-1 A34V): sensitive
Resistance ([3]; strain VC40764, sdha-1 A425V): sensitive
Resistance ([3]; strain VC40765, sdhb-1 L197F): none
Resistance ([3]; strain VC40770, sdha-1 E472K): none
Resistance ([3]; strain VC40781, mev-1 Y152D): resistant
Resistance ([3]; strain VC40799, mev-1 R52C): none
Resistance ([3]; strain VC40903, sdhd-1 D36N): none
Resistance ([3]; strain VC40934, mev-1 G88E): none
Resistance ([3]; strain VC41025, sdha-1 S570F): sensitive
developmental stage of inhibition ([4]; 90 μM, while maintained in drug): arrest at the first larval stage (L1)
outcome after exposure / removal from drug ([4]; L1s removed from the drug): reversible inhibition
brood sizes reduced ([4]; wild-type worms grown in 90 μM): 97%
